According to patent US11591355B2 (Peloton Therapeutics, Inc., priority 2017, dated 2023):

Experiments:
[1] = target: T1, CD73 on U138 human neuroglioma cells (Homo sapiens, UniProt P21589); assay: CD73 Cell-Based Assay; conditions: U138 cells, AMP substrate, 2 hours at 37° C., inorganic phosphate by malachite green
T1 construct: U138 cells were obtained from ATCC and cultured in DMEM with 10% FBS; host or cells: U138 human neuroglioma cells
T1 sequence (P21589 27-549): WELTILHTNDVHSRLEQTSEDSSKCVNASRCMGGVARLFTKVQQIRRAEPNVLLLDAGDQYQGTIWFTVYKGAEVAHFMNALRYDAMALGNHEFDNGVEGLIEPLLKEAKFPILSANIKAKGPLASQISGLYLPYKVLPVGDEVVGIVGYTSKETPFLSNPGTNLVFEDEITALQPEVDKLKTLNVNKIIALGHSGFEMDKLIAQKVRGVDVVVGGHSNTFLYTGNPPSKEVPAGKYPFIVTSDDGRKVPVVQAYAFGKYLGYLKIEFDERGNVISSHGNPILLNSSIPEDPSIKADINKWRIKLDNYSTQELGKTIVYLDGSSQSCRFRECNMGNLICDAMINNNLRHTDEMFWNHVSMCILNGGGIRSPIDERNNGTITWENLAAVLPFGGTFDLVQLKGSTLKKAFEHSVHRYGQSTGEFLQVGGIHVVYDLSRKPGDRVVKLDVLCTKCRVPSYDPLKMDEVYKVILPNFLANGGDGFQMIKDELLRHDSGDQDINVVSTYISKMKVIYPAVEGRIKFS
Procedure, shortened: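 Whole U138 cells washed free of phosphate were incubated with 200 μM AMP (mixture concentration before equal-volume addition) plus compound in HEPES-buffered saline, pH 7.4, for 2 h at 37 °C, 5% CO2. Adenosine-forming activity read as inorganic phosphate released into supernatant by malachite green.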

Human CD73 = target: T2, Human CD73 (Homo sapiens, UniProt P21589); assay: CD73 Enzyme Assay; type: biochemical; conditions: 0.25 nM hCD73, 25 μM AMP, kinetic read at 360 nm; read-out: CD73 Enzyme Assay IC50
T2 construct: purchased R&D Systems; host or cells: CHO cells
T2 sequence (P21589 27-549): T1 sequence (P21589 27-549)

SMILES	IC50 [1] [nM]	IC50 (Human CD73) [nM]
N#Cc1nc(NC2CCCC2)c2cnn([C@@H]3O[C@H](CS(=O)(=O)CP(=O)(O)O)[C@@H](O)[C@H]3O)c2n1 [Compound 296, (((((2S,3S,4R,5R)-5-(6-cyano-4-(cyclopentylamino)-1H-pyrazolo[3,4-d]pyrimidin-1-yl)-3,4-dihydroxytetrahydrofuran-2-yl)methyl)sulfonyl)methyl)phosphonic acid]	< 10	< 10
O=P(O)(O)COC[C@H]1O[C@@H](c2c(Br)sc3c(N4CC5CCCC5C4)nc(Cl)nc23)[C@H](O)[C@@H]1O (stereo partly drawn) [Compound 297, [(2R,3S,4R,5S)-5-[4-(3,3a,4,5,6,6a-hexa-hydro-1H-cyclopenta-[c]pyrrol-2-yl)-6-bromo-2-chloro-thieno[3,2-d]-pyrimidin-7-yl]-3,4-dihydroxy-tetrahydro-furan-2-yl]methoxy-methylphosphonic acid]	100 to 1000	100 to 1000
O=P(O)(O)COC[C@H]1O[C@@H](c2ccc3c(NC4CCCC4)nc(Cl)nn23)[C@H](O)[C@@H]1O [Compound 298, [(2R,3S,4R,5S)-5-[2-chloro-4-(cyclopentyl-amino)pyrrolo[2,1-f]-[1,2,4]triazin-7-yl]-3,4-dihydroxy-tetrahydro-furan-2-yl]methoxy-methylphosphonic acid]	< 10	< 10
N#Cc1nc(N2CC3CCCC3C2)c2cnn([C@@H]3O[C@H](CS(=O)(=O)CP(=O)(O)O)[C@@H](O)[C@H]3O)c2n1 (stereo partly drawn) [Compound 299, [(2S,3S,4R,5R)-5-[4-(3,3a,4,5,6,6a-hexa-hydro-1H-cyclopenta-[c]pyrrol-2-yl)-6-cyano-pyrazolo[3,4-d]-pyrimidin-1-yl]-3,4-dihydroxy-tetrahydro-furan-2-yl]methyl-sulfonylmethylphos-phonic acid]	< 10	< 10
N#Cc1nc(NC2CC3CC3C2)c2cnn([C@@H]3O[C@H](CS(=O)(=O)CP(=O)(O)O)[C@@H](O)[C@H]3O)c2n1 (stereo partly drawn) [Compound 300, [(2S,3S,4R,5R)-5-[4-(3-bicyclo[3.1.0]-hexanylamino)-6-cyano-pyrazolo[3,4-d]-pyrimidin-1-yl]-3,4-dihydroxy-tetrahydro-furan-2-yl]methyl-sulfonylmethylphos-phonic acid]	< 10	10 to 100
O=P(O)(O)CS(=O)(=O)C[C@H]1O[C@@H](n2ccc3c(NC4CCCC4)nc(C(F)(F)F)nc32)[C@H](O)[C@@H]1O [Compound 303, [(2S,3S,4R,5R)-5-[4-(cyclopentylamino)-2-(trifluoromethyl)-pyrrolo[2,3-d]-pyrimidin-7-yl]-3,4-dihydroxy-tetrahydro-furan-2-yl]methyl-sulfonylmethylphos-phonic acid]	10 to 100	10 to 100
O=P(O)(O)COC[C@H]1O[C@H](c2csc3c(N4CC5CCCC5C4)nc(Cl)nc23)[C@H](O)[C@@H]1O (stereo partly drawn) [Compound 304, [(2R,3S,4R,5R)-5-[4-(3,3a,4,5,6,6a-hexa-hydro-1H-cyclopenta-[c]pyrrol-2-yl)-2-chloro-thieno[3,2-d]-pyrimidin-7-yl]-3,4-dihydroxy-tetrahydro-furan-2-yl]methoxy-methylphosphonic acid]	> 1000	> 1000
O=P(O)(O)COC[C@H]1O[C@@H](c2csc3c(NC4CCCC4)nc(Cl)nc23)[C@H](O)[C@@H]1O [Compound 305, [(2R,3S,4R,5S)-5-[2-chloro-4-(cyclopentyl-amino)thieno[3,2-d]-pyrimidin-7-yl]-3,4-dihydroxy-tetrahydro-furan-2-yl]methoxy-methylphosphonic acid]	10 to 100	10 to 100
C[C@H](Nc1nc(C#N)nc2c1cnn2[C@@H]1O[C@H](CS(=O)(=O)CP(=O)(O)O)[C@@H](O)[C@H]1O)c1ccc(F)cc1 [Compound 307, [(2S,3S,4R,5R)-5-[6-cyano-4-[[(1S)-1-(4-fluorophenyl)ethyl]-amino]pyrazolo[3,4-d]pyrimidin-1-yl]-3,4-dihydroxy-tetrahydro-furan-2-yl]methyl-sulfonylmethylphos-phonic acid]	< 10	10 to 100
N#Cc1nc(NC2CCC2)c2cnn([C@@H]3O[C@H](CS(=O)(=O)CP(=O)(O)O)[C@@H](O)[C@H]3O)c2n1 [Compound 308, [(2S,3S,4R,5R)-5-[6-cyano-4-(cyclobutyl-amino)pyrazolo[3,4-d]-pyrimidin-1-yl]-3,4-dihydroxy-tetrahydro-furan-2-yl]methyl-sulfonylmethylphos-phonic acid]	< 10	< 10
